# According to patent US7544476B1, “Identifying cancers sensitive to treatment with inhibitors of notch signaling” (AVEO Pharmaceuticals, Inc., priority 2008, dated 2009):
# How the values were obtained:
# [1] = tested on: HT-29 colon cancer cell line; assay: Notch target gene expression by qRT-PCR after treatment with gamma-secretase inhibitor; assay type: cell-based, human
# Protocol: (§1) Cells were seeded into 6-well plates in 2 mL of media. Replicates wells of cells treated with 1 μM, 3 μM, and 6 μM Gamma Secretase Inhibitor (GSI; Sigma L-685,458) or DMSO (Sigma D2650) (vehicle control) immediately after seeding. Cells were incubated at 37° C. 5% CO2 for 20 hours after treatment, then collected, rinsed with PBS (Invitrogen 14040-133), and cell pellets were frozen on dry ice and stored at −80° C. Subsequently, RNA was prepared by hand using the Qiagen RNeasy™ miniprep columns (Qiagen GR8RNA) and qRT-PCR performed to analyze Notch target gene expression according to standard protocol (Qiagen Quantitect SYBR GREEN RT-PCR kit 204245). Quantitative RT-PCR was run on Applied Biosystems 7900HT Sequence Detection System. Results were analyzed using the comparative Ct method. Beta Actin was used as the housekeeping gene and Stratagene Universal Human Reference RNA (Stratagene Cat. No. 740000) was used as an external reference sample to determine the level of expression of the Notch target genes Hes1, Hes5, Hes6, Hes7, Hey1, Hey2, HeyL, and Helt.
# [2] = tested on: LS-1034 colon cancer cell line; assay: as above; assay type: cell-based, human
# Protocol: as §1
# [3] = tested on: mouse tumors with enhanced expression of Notch1 caused by Mo-MuLV integration near the Notch1 locus; assay: Cell viability assay on disaggregated retroviral-induced tumors treated with GSI; assay type: cell-based
# Protocol: To perform the analyses on the retroviral-induced tumors, tumor-bearing animals were euthanized, tumors were collected and 0.2 g pieces were disaggregated using 4 mg/ml collagenase in RPMI media for 2 hours at 37° C. Cells were further disaggregated by passage through an 18 G needle 5-10 times. Single cells in suspension were aspirated in the supernatant for further analysis.
# (§2) For cell viability assays, single cells were re-seeded at 100,000 cell per well in 12-well plates in RPMI media supplemented with 10% FBS, 1% PenStrep, and 0.01 μM Beta estradiol. Cells were then treated for 48 hours with 1, 3 or 10 μM GSI (Sigma L-685,458) or vehicle control. Cell viability and apoptosis were assessed using Guava PCA-96 Viacount Flex reagent (Cat. No. 4700-0060) and measured using a Guava PCA-96 instrument, according to manufacturer's protocol. To measure mRNA expression levels, fresh tumor samples were collected, RNA was prepared using standard protocols, and microarray gene expression profile analysis was performed using Agilent cDNA microarray chips according to manufacturer's recommended protocols. Relative expression of HeyL and other genes was calculated by comparison to a universal mouse reference RNA sample from Stratagene (Universal Mouse Reference RNA Cat. No. 740100). […]
# [4] = tested on: mouse tumors that did not exhibit elevated Notch1 expression; assay: as above; assay type: cell-based; details: mouse tumors without elevated Notch1 expression
# Protocol: as §2, with “To perform the analyses on the retroviral-induced tumors, tumor-bearing animals were euthanized, tumors were collected and 0.2 g pieces were disaggregated using 4 mg/ml collagenase in RPMI media for 2 hours at 37° C. Cells were further disaggregated by passage through an 18 G needle 5-10 times. Single cells in suspension were aspirated in the supernatant for further analysis. For” for “For”
smiles,measurement,setting,value
CC(C)C[C@H](NC(=O)[C@H](Cc1ccccc1)C[C@@H](O)[C@H](Cc1ccccc1)NC(=O)OC(C)(C)C)C(=O)N[C@@H](Cc1ccccc1)C(N)=O [GSI],expression of Notch target genes,[1],decreases expression of Notch target genes
same,expression of Notch target genes,[2],decreases expression of Notch target genes
same,sensitivity of tumor growth to inhibition by GSI,[3],sensitivity to inhibition
same,sensitivity of tumor growth to inhibition by GSI,[4],not sensitive
